The target in data set [1] is T1, dopamine D2 receptor (Homo sapiens, UniProt P14416).
T1 construct: expressed in transfected cells; host or cells: CHO cells (CHO-hD2L)
As to the kind of experiment: Dopamine D2 receptor binding ([3H]spiperone, CHO-hD2L membranes). Conditions: [3H]spiperone 0.4 nM. The source says:
(§1) The ability of the compounds of this invention to bind to the dopamine D2 and serotonin 2A (5HT2A) receptors can be determined using conventional radioligand receptor binding assays. All receptors can be heterologously expressed in cell lines and experiments conducted in membrane preparations from the cell lines using procedures outlined below. IC50 concentrations can be determined by nonlinear regression of concentration-dependent reduction in specific binding. The Cheng-Prussoff equation can be used to convert the IC50 to Ki concentrations.
Dopamine D2 Receptor Binding:
[^3H]Spiperone binding to a membrane preparation from CHO-hD2L cells is carried out in 250 μl of 50 mM Tris-HCl buffer containing 100 mM NaCl, 1 mM MgCl2 and 1% DMSO at pH 7.4. Duplicate samples containing (in order of addition) the test compounds, 0.4 nM [^3H]spiperone and approximately 12 μg protein are incubated for 120 minutes at room temperature. Bound radioligand is separated by rapid filtration under reduced pressure through Whatman GF/B glass fiber filters previously treated with 0.3% polyethyleneimine. Radioactivity retained on the filter is determined by liquid scintillation spectrophotometry.
The title compounds of Examples 1-6 were tested using the above assay, in which specific binding determined in the presence of 1 mM haloperidol was 95%.

Data set [2] has as its target T2, serotonin 2A (5HT2A) receptor (Homo sapiens, UniProt P28223).
T2 construct: expressed in transfected cells; host or cells: Swiss cells (Swiss-h5HT2A)
In words: Serotonin 2A binding ([3H]ketanserin, Swiss-h5HT2A cell membranes). The settings on record: [3H]ketanserin 1.0 nM.
Excerpt: as §1
[^3H] Ketanserin binding to Swiss-h5HT2A cell membranes can be carried out in 250 μl of 50 mM Tris-HCl buffer pH 7.4. Duplicate samples containing (in order of addition) test compounds, 1.0 nM [^3H]ketanserin, and approximately 75 μg protein are incubated for 120 minutes at room temperature. Bound radioligand is separated by rapid filtration under reduced pressure through Whatman GF/B glass fiber filters previously treated with 0.3% polyethyleneimine. Radioactivity retained on the filter is determined by liquid scintillation spectrophotometry.
The title compounds of Examples 1-6 were tested using the above assay, in which specific binding determined in the presence of 1 mM ketanserin was 90%.

For data set [3], the system named is d-amphetamine-stimulated locomotor activity in rats. In words: d-Amphetamine-stimulated locomotor activity (LMA). It counts as in vivo, Sprague Dawley rat. Conditions: rat, oral, 30 min before d-amphetamine 1 mg/kg s.c., 2 h recording. As to the method: d-Amphetamine-Stimulated Locomotor Activity (LMA):
The LMA model is used to test novel compounds for efficacy as orally active dopaminergic (DA) antagonists. In this model, administration of d-amphetamine to rats induces a stimulation of locomotor activity, measured as centimeters traveled over a two-hour period. Compounds are administered prior to d-amphetamine, and their efficacy in decreasing the stimulated locomotion is assessed as a measure of DA antagonism.
Sprague Dawley (S-D) male rats were obtained from Harlan Laboratories, Indianapolis Ind. All rats weighed 130-150 g at the time of arrival and were housed in groups of 5 for at least 1 week prior to testing. Food and water were available ad lib. At the time of testing, rats weighed 150-200 g. Tests occurred between 9:00 AM and 4:00 PM. All rats were food deprived overnight prior to testing.
Locomotor activity testing in rats was performed using 16-Beam Digiscan Animal Activity Monitors (Accuscan Electronics, Columbus, Ohio). Each test chamber consisted of a Plexiglas box measuring 16×16 inches, placed within the monitor frame. The entire monitor/chamber assembly is further housed inside a stainless steel sound-attenuating chamber (SAC). The SAC is lighted, ventilated, and isolates the rat from room environment. Rats were tested one per chamber. Data is collected using Versamax software.
Each test consists of four treatment groups, vehicle and three doses of the test compound. Each treatment group is comprised of 8 animals. The test is performed in two sessions, with 4 groups of 4 rats in each treatment group tested in each session, and data from the two sessions, typically morning and afternoon of the same day, combined to give a total of 8 rats per group.
Rats were removed from the housing room and transported to the test room in transfer cages. […]
Data were collected as centimeters traveled during the 2 hour test period. The effect of the test compound was expressed as a percentage decrease (or increase) in stimulated locomotor activity relative to the activity observed in the vehicle-treated group. […]

Structures are written as SMILES. Structures can show the parent of a compound that is named as a salt.

T1 sequence (P14416 whole entry): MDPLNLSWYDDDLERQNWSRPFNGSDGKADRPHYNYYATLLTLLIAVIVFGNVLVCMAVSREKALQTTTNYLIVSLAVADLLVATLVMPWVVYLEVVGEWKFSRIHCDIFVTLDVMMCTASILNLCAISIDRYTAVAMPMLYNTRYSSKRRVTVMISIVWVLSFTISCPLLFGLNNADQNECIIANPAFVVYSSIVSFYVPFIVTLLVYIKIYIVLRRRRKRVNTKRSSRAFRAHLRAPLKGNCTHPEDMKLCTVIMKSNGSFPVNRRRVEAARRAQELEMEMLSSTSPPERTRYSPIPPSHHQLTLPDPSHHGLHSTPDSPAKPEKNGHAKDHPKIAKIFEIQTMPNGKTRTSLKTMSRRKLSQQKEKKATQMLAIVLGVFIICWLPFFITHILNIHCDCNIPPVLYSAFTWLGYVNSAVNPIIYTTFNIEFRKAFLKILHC
T2 sequence (P28223 whole entry): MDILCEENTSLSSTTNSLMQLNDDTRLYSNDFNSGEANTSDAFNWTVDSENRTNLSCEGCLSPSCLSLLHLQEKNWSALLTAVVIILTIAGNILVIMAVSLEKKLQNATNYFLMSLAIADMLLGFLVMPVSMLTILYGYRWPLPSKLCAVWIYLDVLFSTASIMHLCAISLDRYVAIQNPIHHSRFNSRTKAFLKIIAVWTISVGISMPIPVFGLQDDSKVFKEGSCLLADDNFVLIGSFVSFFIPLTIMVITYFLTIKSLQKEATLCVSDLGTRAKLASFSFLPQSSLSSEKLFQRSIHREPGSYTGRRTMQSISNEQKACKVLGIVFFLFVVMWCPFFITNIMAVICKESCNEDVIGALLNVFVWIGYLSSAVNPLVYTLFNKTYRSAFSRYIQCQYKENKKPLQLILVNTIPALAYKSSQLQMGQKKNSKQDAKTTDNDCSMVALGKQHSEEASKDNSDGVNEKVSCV

One may read the melting point as the temperature of the solid-liquid transition. With `CC(=O)N1CCC(C)(C)c2c(C)ccc(CCN3CCN(c4nsc5ccccc45)CC3)c21` (as salt: HCl) [Example 21, 1-{8-[2-(4-BENZO[D]ISOTHIAZOL-3-YL-PIPERAZIN-1-YL)-ETHYL]-4,4,5-TRIMETHYL-3,4-DIHYDRO-2H-QUINOLIN-1-YL}-ETHANONE], the melting point turned out to be 132 °C.
Usually Ki stands for the dissociation constant of the complex between target and ligand, obtained from inhibition or displacement. Low readings indicate tighter binding, high ones weaker binding. The compound `CC1(C)Cc2cccc(CCN3CCN(c4nsc5ccccc45)CC3)c2NC1=O` [Example 5, 8-[2-(4-1,2-BENZISOTHIAZOL-3-YL-PIPERAZIN-1-YL)-ETHYL]-3,3-DIMETHYL-3,4-DIHYDRO-1H-QUINOLIN-2-ONE] registered a melting point of 95 °C. Further, affinity in data set [1] was put at a Ki of 74.9 nM. In addition, the inhibitory constant (Ki) in data set [2] came to 2.07 nM.
`CC(=O)N1CCC(C)(C)c2cc(F)cc(CCN3CCN(c4noc5ccccc45)CC3)c21` (as salt: HCl) [Example 28, 1-{8-[2-(4-benzo[d]isoxazol-3-yl-piperazin-1-yl)-ethyl]-6-fluoro-4,4-dimethyl-3,4-dihydro-2H-quinolin-1-yl}-ethanone] had a melting point of 112 °C.
Consider `Cc1cc(=O)[nH]c2c(CCN3CCN(c4nsc5ccccc45)CC3)cccc12` [Example 29, 8-[2-(4-BENZO[D]ISOTHIAZOL-3-YL-PIPERAZIN-1-YL)-ETHYL]-4-METHYL-1H-QUINOLIN-2-ONE], for which, in data set [3], the “activity in reducing d-amphetamine-stimulated locomotor activity (significant decrease vs vehicle)” value is recorded as “active”.
`Cc1ccc(CCN2CCN(c3nsc4ccccc34)CC2)c2c1C(C)(C)CC(=O)N2` [Example 20, 8-[2-(4-BENZO[D]ISOTHIAZOL-3-YL-PIPERAZIN-1-YL)-ETHYL]-4,4,5-TRIMETHYL-3,4-DIHYDRO-1H-QUINOLIN-2-ONE]: the melting point was found to be 129 °C.
For the compound `CC1(C)CC(=O)Nc2c(CCN3CCN(c4nsc5ccc(F)cc45)CC3)cc(F)cc21` [Example 16, 6-FLUORO-8-{2-[4-(5-FLUORO-BENZO[D]ISOTHIAZOL-3-YL)-PIPERAZIN-1-YL]-ETHYL}-4,4-DIMETHYL-3,4-DIHYDRO-1H-QUINOLIN-2-ONE], the melting point was 191 °C.
As for `Cc1ccc(CCN2CCN(c3noc4ccccc34)CC2)c2c1C(C)(C)CC(=O)N2` [Example 24, 8-[2-(4-BENZO[D]ISOXAZOL-3-YL-PIPERAZIN-1-YL)-ETHYL]-4,4,5-TRIMETHYL-3,4-DIHYDRO-1H-QUINOLIN-2-ONE], the melting point stood at 170 °C.
Regarding `CC(=O)N1CCC(C)(C)c2cccc(CCCN3CCN(c4nsc5ccccc45)CC3)c21` (as salt: HCl) [Example 19, 1-{8-[3-(4-BENZO[D]ISOTHIAZOL-3-YL-PIPERAZIN-1-YL)-PROPYL]-4,4-DIMETHYL-3,4-DIHYDRO-2H-QUINOLIN-1-YL}-ETHANONE], the melting point came out at 109 °C.
Turning to `CC1(C)CC(=O)Nc2c(CCN3CCN(c4nsc5ccccc45)CC3)cc(F)cc21` [Example 3, 8-[2-(4-1,2-BENZISOTHIAZOL-3-YL-PIPERAZIN-1-YL)-ETHYL]-6-FLUORO-4,4-DIMETHYL-3,4-DIHYDRO-1H-QUINOLIN-2-ONE], the “activity in reducing d-amphetamine-stimulated locomotor activity (significant decrease vs vehicle)” value in data set [3] was “active”.
Compound `CC(=O)N1CCC(C)(C)c2cc(F)cc(CCN3CCN(c4nsc5ccc(F)cc45)CC3)c21` (as salt: HCl) yielded a melting point of 128 °C.
Regarding `CC1(C)CC(=O)Nc2c(CCN3CCN(c4nsc5ccccc45)CC3)cc(F)cc21` (as salt: hydrochloride) [Example 3, 8-[2-(4-1,2-BENZISOTHIAZOL-3-YL-PIPERAZIN-1-YL)-ETHYL]-6-FLUORO-4,4-DIMETHYL-3,4-DIHYDRO-1H-QUINOLIN-2-ONE], the melting point was determined as 298 °C.
The compound `CN1C(=O)CC(C)(C)c2cccc(CCN3CCN(c4nsc5ccccc45)CC3)c21` [Example 2, 8-[2-(4-1,2-BENZISOTHIAZOL-3-YL-PIPERAZIN-1-YL)-ETHYL]-1,4,4-TRIMETHYL-3,4-DIHYDRO-1H-QUINOLIN-2-ONE] gave a melting point of 261 °C. The compound also yielded an inhibitory constant (Ki) in data set [1] of 81.3 nM. Further, affinity in data set [2] was put at a Ki of 0.18 nM.
Regarding `CC1(C)CC(=O)Nc2c(CCN3CCN(c4nsc5ccccc45)CC3)cccc21` [Example 1, 8-[2-(4-1,2-BENZISOTHIAZOL-3-YL-PIPERAZIN-1-YL)-ETHYL]-4,4-DIMETHYL-3,4-DIHYDRO-1H-QUINOLIN-2-ONE], the “activity in reducing d-amphetamine-stimulated locomotor activity (significant decrease vs vehicle)” value in data set [3] is given as “active”.
`CC1(C)CC(=O)Nc2c(CCN3CCN(c4noc5ccccc45)CC3)cc(F)cc21` [Example 27, 8-[2-(4-BENZO[D]ISOXAZOL-3-YL-PIPERAZIN-1-YL)-ETHYL]-6-FLUORO-4,4-DIMETHYL-3,4-DIHYDRO-1H-QUINOLIN-2-ONE]: the melting point turned out to be 230 °C.
Same read-out and setting: the result for `Cl.O=C1CCc2cccc(CCN3CCN(c4nsc5ccccc45)CC3)c2N1` reads 251 °C; that for `CC1(C)CC(=O)Nc2c(CCCN3CCN(c4nsc5ccccc45)CC3)cccc21` [Example 18, 8-[3-(4-BENZO[D]ISOTHIAZOL-3-YL-PIPERAZIN-1-YL)-PROPYL]-4,4-DIMETHYL-3,4-DIHYDRO-1H-QUINOLIN-2-ONE], 166 °C; that for `CC1(C)CC(=O)Nc2c(CCN3CCN(c4n[s+]([O-])c5ccccc45)CC3)cc(F)cc21` (stereo not drawn) [Example 14, 6-Fluoro-4,4-dimethyl-8-{2-[4-(1−oxo-1H-1λ^4-benzo[d]isothiazol-3-yl)-piperazin-1-yl]-ethyl}-3,4-dihydro-1H-quinolin-2-one], 235 °C.
In turn, `CC1(C)CC(=O)Nc2c(CCN3CCN(c4nsc5ccccc45)CC3)cccc21` (as salt: hydrochloride) [Example 1, 8-[2-(4-1,2-BENZISOTHIAZOL-3-YL-PIPERAZIN-1-YL)-ETHYL]-4,4-DIMETHYL-3,4-DIHYDRO-1H-QUINOLIN-2-ONE] came in with a melting point of 284 °C.
Compound `O=C1CC(c2ccccc2)c2cccc(CCN3CCN(c4nsc5ccccc45)CC3)c2N1` (stereo not drawn) [Example 6, 8-[2-(4-1,2-BENZISOTHIAZOL-3-YL-PIPERAZIN-1-YL)-ETHYL]-4-PHENYL-3,4-DIHYDRO-1H-QUINOLIN-2-ONE] came in with a melting point of 227 °C. The same compound yielded a Ki in data set [1] of 13.8 nM. The compound also showed an inhibitory constant (Ki) in data set [2] of 0.04 nM.
In turn, `Cc1ccc(CCN2CCN(c3noc4ccccc34)CC2)c2c1C(C)(C)CCN2` [Example 25, 8-[2-(4-BENZO[D]ISOXAZOL-3-YL-PIPERAZIN-1-YL)-ETHYL]-4,4,5-TRIMETHYL-1,2,3,4-TETRAHYDRO-QUINOLINE] came in with a melting point of 135 °C.
Still for that read-out and setting: for `CC(=O)N1CCC(C)(C)c2c(C)ccc(CCN3CCN(c4noc5ccccc45)CC3)c21` (as salt: HCl) [Example 26, 1-{8-[2-(4-BENZO[D]ISOXAZOL-3-YL-PIPERAZIN-1-YL)-ETHYL]-4,4,5-TRIMETHYL-3,4-DIHYDRO-2H-QUINOLIN-1-YL}-ETHANONE] the value was 230 °C.

For the origin of these results see patent US20040067960A1, “Heterocyclic substituted piperazines for the treatment of schizophrenia” (priority 2002, published 2004).
